For one assay, the target named is MT1 receptor (Homo sapiens, UniProt P48039). Briefly: Melatonin MT1 receptor binding study. Particulars: 2-[125I]-iodomelatonin radioligand, competitive binding in triplicate. Here is the method: (§1) The MT1 or MT2 receptor binding experiments are carried out using 2-[^125I]-iodomelatonin as reference radioligand. The radioactivity retained is determined using a liquid scintillation counter.
(§2) Competitive binding experiments are then carried out in triplicate using the various test compounds. A range of different concentrations is tested for each compound. The results enable the binding affinities of the compounds tested (Ki) to be determined.

The next assay concerns the target T1, MT2 receptor (Homo sapiens, UniProt P49286).
T1 sequence (P49286 1-362): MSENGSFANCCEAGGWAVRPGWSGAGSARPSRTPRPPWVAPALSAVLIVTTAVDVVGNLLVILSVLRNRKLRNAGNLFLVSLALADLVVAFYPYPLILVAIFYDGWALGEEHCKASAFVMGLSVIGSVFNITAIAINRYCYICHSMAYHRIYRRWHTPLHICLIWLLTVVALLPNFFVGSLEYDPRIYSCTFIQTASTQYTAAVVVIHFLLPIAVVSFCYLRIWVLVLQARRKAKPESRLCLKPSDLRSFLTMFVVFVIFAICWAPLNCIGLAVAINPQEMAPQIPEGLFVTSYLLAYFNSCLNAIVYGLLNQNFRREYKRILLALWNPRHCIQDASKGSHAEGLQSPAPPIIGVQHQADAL
As to the kind of experiment: Melatonin MT2 receptor binding study. Conditions: 2-[125I]-iodomelatonin radioligand, competitive binding in triplicate. Here is the method: as §1, §2

Results on one compound are retold here after US7462741B2, “Naphthalene compounds” (Les Laboratoires Servier, priority 2006, dated 2008).

For orientation: Ki means the dissociation constant of the complex between target and ligand, obtained from inhibition or displacement.

Sequence of MT1 receptor (P48039 whole entry): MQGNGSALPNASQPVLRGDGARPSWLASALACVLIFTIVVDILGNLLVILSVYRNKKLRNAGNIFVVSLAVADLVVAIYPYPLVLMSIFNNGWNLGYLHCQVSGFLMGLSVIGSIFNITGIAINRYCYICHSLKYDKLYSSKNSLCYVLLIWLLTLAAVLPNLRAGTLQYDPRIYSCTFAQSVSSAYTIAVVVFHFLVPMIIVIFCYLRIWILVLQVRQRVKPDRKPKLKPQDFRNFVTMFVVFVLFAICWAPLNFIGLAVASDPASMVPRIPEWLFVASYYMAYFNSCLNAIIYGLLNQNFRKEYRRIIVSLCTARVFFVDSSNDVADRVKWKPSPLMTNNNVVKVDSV

Turning to `CCC(=O)NCC(CO)c1cccc2ccc(OC)cc12` (centres unmarked) [Example 1, N-[3-Hydroxy-2-(7-methoxy-1-naphthyl)propyl]propanamide], the Ki on MT1 receptor was determined as 1.4 nM; on MT2 receptor it was 3.2 nM.
